The source made the active and inactive calls. How the calls were made is not given here.
Tested on: CCRIS mutagenicity, Ames/micronucleus/aberration tests
Experiment: CCRIS mutagenicity studies
[1] = Test System: AMES SALMONELLA TYPHIMURIUM, Strain/Indicator: TA98, Metabolic Activation: NONE, Method: STANDARD PLATE
[2] = Test System: AMES SALMONELLA TYPHIMURIUM, Strain/Indicator: TA98, Metabolic Activation: RAT, LIVER, S-9, AROCLOR 1254, Method: STANDARD PLATE
[3] = Test System: AMES SALMONELLA TYPHIMURIUM, Strain/Indicator: TA100, Metabolic Activation: NONE, Method: STANDARD PLATE
[4] = Test System: AMES SALMONELLA TYPHIMURIUM, Strain/Indicator: TA100, Metabolic Activation: RAT, LIVER, S-9, AROCLOR 1254, Method: STANDARD PLATE
[5] = Test System: AMES SALMONELLA TYPHIMURIUM, Strain/Indicator: TA98, Metabolic Activation: NONE, Method: PREINCUBATION
[6] = Test System: AMES SALMONELLA TYPHIMURIUM, Strain/Indicator: TA100, Metabolic Activation: NONE, Method: PREINCUBATION

SMILES: C/C=C(\Cl)C1=C(Cl)C(=O)[C@]23C[C@H]2C(C)(C)O[C@]3(O)C1=O
- mutagenic call (Test System: AMES SALMONELLA TYPHIMURIUM, Strain/Indicator: TA97, Metabolic Activation: NONE): inactive; negative
- mutagenic call (Test System: AMES SALMONELLA TYPHIMURIUM, Strain/Indicator: TA98, Metabolic Activation: NONE): inactive; negative
- mutagenic call (Test System: AMES SALMONELLA TYPHIMURIUM, Strain/Indicator: TA100, Metabolic Activation: NONE): active; positive
- mutagenic call (Test System: AMES SALMONELLA TYPHIMURIUM, Strain/Indicator: TA102, Metabolic Activation: NONE): active; positive

SMILES: [Cl][Sn]([c]1ccccc1)([c]1ccccc1)[c]1ccccc1
- mutagenic call (Test System: AMES SALMONELLA TYPHIMURIUM, Strain/Indicator: TA98, Metabolic Activation: NONE, Method: SUSPENSION/PLATE): inactive; negative
- mutagenic call (Test System: AMES SALMONELLA TYPHIMURIUM, Strain/Indicator: TA100, Metabolic Activation: NONE, Method: SUSPENSION/PLATE): inactive; negative

SMILES: CN1CCC=C2c3nc(N)sc3CCC21 (configuration not stated)
- mutagenic call [1]: inactive; negative
- mutagenic call [2]: active; positive
- mutagenic call [3]: inactive; negative
- mutagenic call [4]: active; positive
- mutagenic call (Test System: AMES SALMONELLA TYPHIMURIUM, Strain/Indicator: TA1535, Metabolic Activation: NONE, Method: STANDARD PLATE): inactive; negative
- mutagenic call (Test System: AMES SALMONELLA TYPHIMURIUM, Strain/Indicator: TA1535, Metabolic Activation: RAT, LIVER, S-9, AROCLOR 1254, Method: STANDARD PLATE): inactive; negative
- mutagenic call (Test System: AMES SALMONELLA TYPHIMURIUM, Strain/Indicator: TA1537, Metabolic Activation: NONE, Method: STANDARD PLATE): inactive; negative
- mutagenic call (Test System: AMES SALMONELLA TYPHIMURIUM, Strain/Indicator: TA1537, Metabolic Activation: RAT, LIVER, S-9, AROCLOR 1254, Method: STANDARD PLATE): inactive; negative
- mutagenic call (Test System: AMES SALMONELLA TYPHIMURIUM, Strain/Indicator: TA1538, Metabolic Activation: NONE, Method: STANDARD PLATE): inactive; negative

SMILES: CC(=O)OCc1ccccc1[N+](=O)[O-]
- mutagenic call [5]: inactive; negative
- mutagenic call [6]: inactive; negative
- mutagenic call (Test System: AMES SALMONELLA TYPHIMURIUM, Strain/Indicator: TA100, Metabolic Activation: RAT, LIVER, S-9, AROCLOR 1254, Method: PREINCUBATION): inactive; negative

SMILES: C=C(Br)C(=O)O
- mutagenic call [6]: inactive; negative
- mutagenic call (Test System: AMES SALMONELLA TYPHIMURIUM, Strain/Indicator: TA100, Metabolic Activation: RAT, LIVER, MICROSOMES, Method: PREINCUBATION): inactive; negative

SMILES: O[C@H]1C=Cc2c(cc3c4c(cc5ccccc53)-c3ccccc3-c24)[C@@H]1O
- mutagenic call (Test System: AMES SALMONELLA TYPHIMURIUM, Strain/Indicator: TA100, Metabolic Activation: MOUSE, LIVER, S-9, 3-METHYLCHOLANTHRENE, Method: STANDARD PLATE): active; positive
- mutagenic call (Test System: AMES SALMONELLA TYPHIMURIUM, Strain/Indicator: TA100, Metabolic Activation: RAT, LIVER, S-9, 3-METHYLCHOLANTHRENE, Method: STANDARD PLATE): active; positive

SMILES: OC[C@H]1O[C@@](CO)(O[C@H]2O[C@H](CO)[C@@H](O)[C@H](O)[C@H]2O)[C@@H](O)[C@@H]1O
- mutagenic call (End Point: IN VITRO CHROMOSOMAL ABERRATIONS, Test System: CHO-WBL CELLS, Metabolic Activation: NONE): active; positive (structural changes); osmolality of solution decisive factor
- mutagenic call (Test System: MOUSE LYMPHOMA, Strain/Indicator: L5178Y (TK+/TK-), Metabolic Activation: NONE, Method: SUSPENSION/PLATE): inactive; negative
- mutagenic call (Test System: MOUSE LYMPHOMA, Strain/Indicator: L5178Y (TK+/TK-), Metabolic Activation: RAT, LIVER, S-9, AROCLOR 1254, Method: SUSPENSION/PLATE): inactive; negative
- mutagenic call (Test System: MOUSE LYMPHOMA, Strain/Indicator: L5178Y (TK+/TK-), Metabolic Activation: RAT, LIVER, S-9, Method: SUSPENSION/PLATE): inactive; negative

SMILES: COC(=O)Nc1nc2ccc(C(=O)c3ccc(F)cc3)cc2[nH]1
- mutagenic call [1]: inactive; negative
- mutagenic call [2]: inactive; negative
- mutagenic call [3]: inactive; negative
- mutagenic call [4]: inactive; negative

SMILES: CCc1nc2ccc(NC)c(C)c2nc1CC
- mutagenic call [5]: inactive; negative
- mutagenic call (Test System: AMES SALMONELLA TYPHIMURIUM, Strain/Indicator: TA98, Metabolic Activation: RAT, LIVER, S-9, PCB, Method: PREINCUBATION): active; positive
- mutagenic call [6]: inactive; negative
- mutagenic call (Test System: AMES SALMONELLA TYPHIMURIUM, Strain/Indicator: TA100, Metabolic Activation: RAT, LIVER, S-9, PCB, Method: PREINCUBATION): active; positive

SMILES: CN(c1nccc(=O)[nH]1)C1CCN(c2nc3ccccc3n2Cc2ccc(F)cc2)CC1
- mutagenic call [5]: inactive; negative
- mutagenic call (Test System: AMES SALMONELLA TYPHIMURIUM, Strain/Indicator: TA98, Metabolic Activation: RAT LIVER S-9, PHENOBARBITAL AND 5,6-BENZOFLAVONE, Method: PREINCUBATION): inactive; negative
- mutagenic call [6]: inactive; negative
- mutagenic call (Test System: AMES SALMONELLA TYPHIMURIUM, Strain/Indicator: TA100, Metabolic Activation: RAT LIVER S-9, PHENOBARBITAL AND 5,6-BENZOFLAVONE, Method: PREINCUBATION): inactive; negative
- mutagenic call (Test System: AMES SALMONELLA TYPHIMURIUM, Strain/Indicator: TA1535, Metabolic Activation: NONE, Method: PREINCUBATION): inactive; negative
- mutagenic call (Test System: AMES SALMONELLA TYPHIMURIUM, Strain/Indicator: TA1535, Metabolic Activation: RAT LIVER S-9, PHENOBARBITAL AND 5,6-BENZOFLAVONE, Method: PREINCUBATION): inactive; negative
- mutagenic call (Test System: AMES SALMONELLA TYPHIMURIUM, Strain/Indicator: TA1537, Metabolic Activation: NONE, Method: PREINCUBATION): inactive; negative
- mutagenic call (Test System: AMES SALMONELLA TYPHIMURIUM, Strain/Indicator: TA1537, Metabolic Activation: RAT LIVER S-9, PHENOBARBITAL AND 5,6-BENZOFLAVONE, Method: PREINCUBATION): inactive; negative
- mutagenic call (Test System: E.COLI, Strain/Indicator: WP2 UVRA, Metabolic Activation: NONE, Method: PREINCUBATION): inactive; negative
- mutagenic call (Test System: E.COLI, Strain/Indicator: WP2 UVRA, Metabolic Activation: RAT LIVER S-9, PHENOBARBITAL AND 5,6-BENZOFLAVONE, Method: PREINCUBATION): inactive; negative

SMILES: N/C(=N\O)c1cc(O)c(O)c(O)c1
- mutagenic call (Test System: AMES SALMONELLA TYPHIMURIUM, Strain/Indicator: TA97, Metabolic Activation: NONE, Method: STANDARD PLATE): active; positive
- mutagenic call (Test System: AMES SALMONELLA TYPHIMURIUM, Strain/Indicator: TA97, Metabolic Activation: RAT, LIVER, S-9, DELOR 103, Method: STANDARD PLATE): active; positive
- mutagenic call [1]: inactive; negative
- mutagenic call (Test System: AMES SALMONELLA TYPHIMURIUM, Strain/Indicator: TA98, Metabolic Activation: RAT, LIVER, S-9, DELOR 103, Method: STANDARD PLATE): inactive; negative
- mutagenic call [3]: inactive; negative
- mutagenic call (Test System: AMES SALMONELLA TYPHIMURIUM, Strain/Indicator: TA100, Metabolic Activation: RAT, LIVER, S-9, DELOR 103, Method: STANDARD PLATE): inactive; negative
- mutagenic call (Test System: AMES SALMONELLA TYPHIMURIUM, Strain/Indicator: TA102, Metabolic Activation: NONE, Method: STANDARD PLATE): inactive; negative
- mutagenic call (Test System: AMES SALMONELLA TYPHIMURIUM, Strain/Indicator: TA102, Metabolic Activation: RAT, LIVER, S-9, DELOR 103, Method: STANDARD PLATE): inactive; negative
